Laboratory results taken from US20130116227A1, “BIARYL AMIDE DERIVATIVE OR PHARMACEUTICALLY ACCEPTABLE SALT THEREOF” (DAINIPPON SUMITOMO PHARMA CO., LTD., priority 2010, published 2013).
pIC50: −log10 of the molar value.

The compounds below were run against T1, aldosterone receptor (Rattus norvegicus, UniProt P22199) (assay: Binding inhibition test for aldosterone receptor ([3H]aldosterone, rat renal soluble fraction)). Conditions: [3H]aldosterone 2 nM, rat renal soluble fraction, in the presence of 2 μM RU-486, 4° C. about 18 hours; read-out: MR IC50.
T1 construct: centrifuged at 105,000 g for 30 minutes, and then a supernatant was collected as a renal soluble fraction; from tissue; host or cells: rat kidney (adrenalectomized rat), 105,000 g supernatant (cytosol)
T1 sequence (P22199 1-981): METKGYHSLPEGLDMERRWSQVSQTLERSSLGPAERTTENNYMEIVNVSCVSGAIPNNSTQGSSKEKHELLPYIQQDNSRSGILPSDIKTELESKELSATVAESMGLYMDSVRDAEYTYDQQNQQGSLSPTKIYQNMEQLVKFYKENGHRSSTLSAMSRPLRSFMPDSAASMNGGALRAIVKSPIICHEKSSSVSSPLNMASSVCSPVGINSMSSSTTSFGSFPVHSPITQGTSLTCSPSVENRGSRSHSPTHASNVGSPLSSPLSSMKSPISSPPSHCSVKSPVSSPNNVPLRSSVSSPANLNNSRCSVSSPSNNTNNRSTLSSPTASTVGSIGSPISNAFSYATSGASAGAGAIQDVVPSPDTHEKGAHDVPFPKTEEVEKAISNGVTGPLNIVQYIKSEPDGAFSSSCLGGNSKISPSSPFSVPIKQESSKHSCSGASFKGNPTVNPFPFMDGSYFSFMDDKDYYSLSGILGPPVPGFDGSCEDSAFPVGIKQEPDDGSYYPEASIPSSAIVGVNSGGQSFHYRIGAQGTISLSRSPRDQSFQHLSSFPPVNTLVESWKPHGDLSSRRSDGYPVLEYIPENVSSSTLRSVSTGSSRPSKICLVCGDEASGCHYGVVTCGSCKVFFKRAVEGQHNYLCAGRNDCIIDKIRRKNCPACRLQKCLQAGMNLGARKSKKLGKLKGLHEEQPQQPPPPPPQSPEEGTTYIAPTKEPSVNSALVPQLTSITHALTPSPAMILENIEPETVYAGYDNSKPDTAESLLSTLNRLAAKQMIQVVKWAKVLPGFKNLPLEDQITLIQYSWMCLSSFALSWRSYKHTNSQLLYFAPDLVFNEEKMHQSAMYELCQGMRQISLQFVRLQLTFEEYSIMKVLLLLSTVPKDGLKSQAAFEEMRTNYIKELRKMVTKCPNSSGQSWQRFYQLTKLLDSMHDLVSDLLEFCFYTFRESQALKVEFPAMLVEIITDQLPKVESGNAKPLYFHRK
Procedure: Binding Inhibition Test for Aldosterone Receptor
A rat was layed open in flank regions (on both sides) to remove both adrenal glands. After stitching up the incision, the rat was returnd to a breeding cage again. After removing the kidney from the rat reared for about 3 to 5 days, the kidney was homogenized in 0.1 M Tris-HCl, 0.25M sucrose, 0.1M Na2MoO4 and 2 mM DTT buffer solution (pH7.4). The resultant was centrifuged at 105,000 g for 30 minutes, and then a supernatant was collected as a renal soluble fraction.
The rat renal soluble fraction (0.5 to 1.5 mg), a labeled ligand [^3H] aldosterone (2 nM) and a test article were reacted in the presence of 2 μM RU-486 (glucocorticoid receptor antagonist) in 100 μL of total amounts at 4° C. for about 18 hours. Afterwards, to the reaction solution was added 50 μL of 5% dextran-coated activated charcoal, and the mixture was immingled, and then centrifuged at 3,000 g for 5 minutes. Then, a supernatant (100 μL) was collected and mixed with a liquid scintillator ACS-II (Amersham) (3.5 mL), and then analyzed its radioactivity by a liquid scintillation counter (manufactured by Packard, Tri Carb 2700TR). A non-specific binding was obtained by addition of 2 μM aldosterone to a reaction solution. […]
Binding inhibition rate (%)=100−{(B−N)/(B0−N)}×100
B: labeled ligand binding amounts in the presence of a test article and a labeled ligand
B0: labeled ligand binding amounts in the absence of a test article
N: labeled ligand binding amounts in the presence of excess aldosterone (2 μM)
Test example 1 was carried out for compounds obtained in the Examples.

`CS(=O)(=O)c1ccc(NC(=O)c2ccc(-c3ccccc3OC(F)(F)F)c(CN3CCCC3)c2)cc1` [Example 160] and `CS(=O)(=O)c1ccc(NC(=O)c2ccc(-c3ccccc3OC(F)(F)F)c(CN3CCCOCC3)c2)cc1` [Example 163] cannot be ordered by pIC50: 5.70 for the first, greater than 5.00 for the second.

`CS(=O)(=O)c1ccc(NC(=O)c2ccc(-c3ccccc3OC(F)(F)F)c(CN3CCOCC3)c2)cc1` [Example 162] and `CS(=O)(=O)c1ccc(NC(=O)c2ccc(-c3ccccc3OC(F)(F)F)c(CN3CCC(F)(F)CC3)c2)cc1` [Example 174] are within 0.2 log units of each other in pIC50: 6.18 for the first, 6.03 for the second.

`CS(=O)(=O)c1ccc(NC(=O)c2ccc(-c3ccccc3OC(F)(F)F)c(CN3CC(F)(F)C3)c2)cc1` [Example 171] and `COc1cc(NC(=O)c2ccc(-c3ccccc3OC(F)(F)F)c(CN3CC(F)(F)C3)c2)ccc1S(N)(=O)=O` [Example 287] cannot be ordered by pIC50: greater than 5.00 for the first, 6.60 for the second.

`CS(=O)(=O)c1ccc(NC(=O)c2ccc(-c3ccccc3OC(F)(F)F)c(CNCC(F)F)c2)cc1` [Example 176] and `CC(C)CCNCc1cc(C(=O)Nc2ccc(S(C)(=O)=O)cc2)ccc1-c1ccccc1OC(F)(F)F` [Example 226] cannot be ordered by pIC50: 6.41 for the first, greater than 5.00 for the second.

`CS(=O)(=O)c1ccc(NC(=O)c2ccc(-c3ccccc3OC(F)(F)F)c(CNCc3ccccc3)c2)cc1` [Example 180] and `CS(=O)(=O)c1ccc(NC(=O)c2ccc(-c3ccccc3OC(F)(F)F)c(CNCCOc3ccccc3)c2)cc1` [Example 190] cannot be ordered by pIC50: 6.55 for the first, greater than 5.00 for the second.

`Cn1cccc1CNCc1cc(C(=O)Nc2ccc(S(C)(=O)=O)cc2)ccc1-c1ccccc1OC(F)(F)F` [Example 182] and `Cn1ccnc1CNCc1cc(C(=O)Nc2ccc(S(C)(=O)=O)cc2)ccc1-c1ccccc1OC(F)(F)F` [Example 218] are within 0.2 log units of each other in pIC50: 6.46 for the first, 6.43 for the second.

`CCN(Cc1ccccc1)Cc1cc(C(=O)Nc2ccc(S(C)(=O)=O)cc2)ccc1-c1ccccc1OC(F)(F)F` [Example 189] and `CN(Cc1ccc(F)cc1)Cc1cc(C(=O)Nc2ccc(S(C)(=O)=O)cc2)ccc1-c1ccccc1OC(F)(F)F` [Example 231] cannot be ordered by pIC50: greater than 5.00 for the first, greater than 5.00 for the second.

`CN(Cc1cc(C(=O)Nc2ccc(S(C)(=O)=O)cc2)ccc1-c1ccccc1OC(F)(F)F)C1CCCCC1` [Example 202] and `CS(=O)(=O)c1ccc(NC(=O)c2ccc(-c3ccccc3OC(F)(F)F)c(CNCC3CCCCC3)c2)cc1` [Example 221] cannot be ordered by pIC50: 6.12 for the first, greater than 5.00 for the second.

`CCC(C)(C)NCc1cc(C(=O)Nc2ccc(S(C)(=O)=O)cc2)ccc1-c1ccccc1OC(F)(F)F` [Example 206] and `CCN(CC)c1cc(C(=O)Nc2ccc(S(N)(=O)=O)cc2)ccc1-c1ccccc1OC(F)(F)F` [Example 265] cannot be ordered by pIC50: greater than 5.00 for the first, 6.44 for the second.

Going from `CS(=O)(=O)c1ccc(NC(=O)c2ccc(-c3ccccc3OC(F)(F)F)c(CN[C@H]3CCCc4ccccc43)c2)cc1` [Example 211] to `CS(=O)(=O)c1ccc(NC(=O)c2ccc(-c3ccccc3OC(F)(F)F)c(CN[C@@H]3CCCc4ccccc43)c2)cc1` [Example 229], the pIC50 rises from 6.04 to greater than 7.00.

Going from `COc1cc(NC(=O)c2ccc(-c3ccccc3C(F)(F)F)c(C(O)C(F)(F)F)c2)ccc1S(N)(=O)=O` (stereo not drawn) [Example 244] to `COc1cc(C(=O)Nc2ccc(-c3ccccc3C(F)(F)F)c(CO)c2)ccc1S(N)(=O)=O` [Example 323-2], the pIC50 rises from 6.17 to 6.60 (0.43 log units).

First: COc1cc(NC(=O)c2ccc(-c3ccccc3-c3cccs3)c(CO)c2)ccc1S(N)(=O)=O [Example 257]
Second: COc1cc(NC(=O)c2ccc(-c3ccccc3-c3nc(C)no3)c(CO)c2)ccc1S(N)(=O)=O [Example 259]
The pIC50 of the first is 0.73 log units higher: 7.08 for the first, 6.35 for the second. The first is the more potent here.

`COc1cc(NC(=O)c2ccc(-c3ccccc3OC(F)(F)C(F)F)c(CO)c2)ccc1S(N)(=O)=O` [Example 260] and `COc1cc(C(=O)Nc2ccc(-c3ccccc3OC(F)(F)F)c(CCO)c2)ccc1S(N)(=O)=O` [Example 335] are within 0.2 log units of each other in pIC50: 6.36 for the first, 6.46 for the second.

`COc1cc(NC(=O)c2ccc(-c3ccccc3C(F)(F)F)c(CNCC(F)F)c2)ccc1S(N)(=O)=O` [Example 268] and `COc1ccc(-c2ccc(C(=O)Nc3ccc(S(N)(=O)=O)c(OC)c3)cc2CNCC(F)F)c(C(F)(F)F)c1` [Example 270] are within 0.2 log units of each other in pIC50: 6.00 for the first, 6.19 for the second.

`COc1cc(NC(=O)c2ccc(-c3ccc(N)cc3C(F)(F)F)c(C)c2)ccc1S(N)(=O)=O` [Example 271] and `COc1cc(NC(=O)c2ccc(-c3ccc(O)cc3C(F)(F)F)c(C)c2)ccc1S(N)(=O)=O` [Example 272] are within 0.2 log units of each other in pIC50: 6.43 for the first, 6.40 for the second.

Going from `COc1cc(NC(=O)c2ccc(-c3ncccc3C(F)(F)F)c(C)c2)ccc1S(N)(=O)=O` [Example 279] to `COc1cc(C(=O)Nc2ccc(-c3ccccc3C(F)(F)F)c(CCl)c2)ccc1S(N)(=O)=O` [Example 324], the pIC50 rises from 5.39 to 6.72 (1.33 log units). The second is the more potent here.

`COc1cc(NC(=O)c2ccc(-c3cccnc3C3CCC3)c(C)c2)ccc1S(N)(=O)=O` [Example 282] and `COc1cc(C(=O)Nc2ccc(-c3ccccc3CN3CCOCC3)c(C)c2)ccc1S(N)(=O)=O` [Example 337] are within 0.2 log units of each other in pIC50: 6.14 for the first, 5.96 for the second.

`COc1cc(NC(=O)c2ccc(-c3ccccc3OC(F)(F)F)c(CN3CCC(F)(F)CC3)c2)ccc1S(N)(=O)=O` [Example 286] and `COc1cc(NC(=O)c2ccc(-c3ccccc3OC(F)(F)F)c(CN3CCCCC3)c2)ccc1S(N)(=O)=O` [Example 297] are within 0.2 log units of each other in pIC50: 6.74 for the first, 6.72 for the second.

Going from `COc1cc(NC(=O)c2ccc(-c3ccccc3OC(F)(F)F)c(CNC3CC3)c2)ccc1S(N)(=O)=O` [Example 288] to `COc1cc(NC(=O)c2ccc(-c3ccccc3OC(F)(F)F)c(CNC3CCC3)c2)ccc1S(N)(=O)=O` [Example 289], the pIC50 falls from 6.92 to 6.44 (0.48 log units).

`COc1cc(NC(=O)c2ccc(-c3ccccc3OC(F)(F)F)c(CNc3nnn[nH]3)c2)ccc1S(N)(=O)=O` [Example 293] and `COc1cc(NC(=O)c2ccc(-c3ccccc3OC(F)(F)F)c(CNC3=NCCO3)c2)ccc1S(N)(=O)=O` [Example 309] are within 0.2 log units of each other in pIC50: 6.57 for the first, 6.64 for the second.

Going from `COc1cc(NC(=O)c2ccc(-c3ccccc3OC(F)(F)F)c(CN(C)C3CC3)c2)ccc1S(N)(=O)=O` [Example 294] to `CCN(CC)Cc1cc(C(=O)Nc2ccc(S(N)(=O)=O)c(OC)c2)ccc1-c1ccccc1OC(F)(F)F` [Example 295], the pIC50 falls from 7.66 to 7.00 (0.66 log units).

`COc1cc(NC(=O)c2ccc(-c3ccccc3OC(F)(F)F)c(CN3CCCCCCC3)c2)ccc1S(N)(=O)=O` [Example 299] and `COc1cc(NC(=O)c2ccc(-c3ccccc3OC(F)(F)F)c(CN3CCCOCC3)c2)ccc1S(N)(=O)=O` [Example 303] are within 0.2 log units of each other in pIC50: 6.85 for the first, 6.82 for the second.

Compared with `COc1cc(NC(=O)c2ccc(-c3ccccc3OC(F)(F)F)c(CN3CC(C)OC(C)C3)c2)ccc1S(N)(=O)=O` (stereo not drawn) [Example 302], `COc1cc(NC(=O)c2ccc(-c3ccccc3OC(F)(F)F)c(CN3CC(F)(F)C(F)(F)C3)c2)ccc1S(N)(=O)=O` [Example 305] is 0.39 log units lower in pIC50: 7.21 for the first, 6.82 for the second.

`CCCOc1ccc(-c2ccc(NC(=O)c3ccc(S(N)(=O)=O)c(OC)c3)cc2CO)c(C(F)(F)F)c1` [Example 313] and `COc1cc(C(=O)Nc2ccc(-c3ccc(OCCO)cc3C(F)(F)F)c(CO)c2)ccc1S(N)(=O)=O` [Example 320] are within 0.2 log units of each other in pIC50: 5.66 for the first, 5.60 for the second.

`COc1cc(C(=O)Nc2ccc(-c3ccc(O)cc3C(F)(F)F)c(CO)c2)ccc1S(N)(=O)=O` [Example 315] and `COc1cc(C(=O)Nc2ccc(-c3ccccc3C(F)(F)F)c(COCCCO)c2)ccc1S(N)(=O)=O` [Example 333] are within 0.2 log units of each other in pIC50: 6.38 for the first, 6.55 for the second.

Compound `COc1cc(C(=O)Nc2ccc(-c3ccccc3C(F)(F)F)c(CNCc3ccco3)c2)ccc1S(N)(=O)=O` [Example 329] has a pIC50 of 6.66.
